Assay results from patent US20130204033A1, “ANTIPROLIFERATIVE COMPOUNDS, CONJUGATES THEREOF, METHODS THEREFOR, AND USES THEREOF” (Medarex, Inc., priority 2009, published 2013).
Read-outs that look alike come from different tables or passages of the source.

Tests used:
Assay type in all cases: cell-based, human
[1] = tested on: Nomo-1; test: ATP luminescence proliferation assay, Nomo-1
Method: (§1) This example generally describes the procedures used to assay the antiproliferative activity of compounds of this invention or their conjugates. Human tumor cell lines were obtained from the American Type Culture Collection (ATCC), P.O. Box 1549, Manassas, Va. 20108, USA, and cultured according to instruction from the ATCC. Cells were seeded at 1.0×10^3 or 1.0×10^4 cells/well in 96-well plates for 3 h for ATP assays or ^3H thymidine assays, respectively. 1:3 serial dilutions of free (unconjugated) compounds or their conjugates were added to the wells. Plates were allowed to incubate for 24 to 72 h. The ^3H thymidine plates were pulsed with 1.0 μCi of ^3H-thymidine per well for the last 24 hours of the total incubation period, harvested, and read on a Top Count Scintillation Counter (Packard Instruments, Meriden, Conn.). ATP levels in the ATP plates were measured using the […]-GLO® Luminescent Cell Viability kit following the manufacturer's manual and read on a GLOMAX® 20/20 luminometer (both from Promega, Madison, Wis., USA). The EC50 values—the concentration at which an agent inhibits or reduces cell proliferation by 50% —were determined using PRISM™ software, version 4.0 (GraphPad Software, La Jolla, Calif., USA).
(§2) Using the ^3H thymidine or the ATP luminescence assay, or both, the activities of compounds of this invention were assayed against the following cancer cell lines: HCT-15 (colorectal cancer, multi-drug resistant (MDR)); Hep3B (liver cancer); LNCaP (prostate cancer, androgen receptor positive (AR^+)); MDA-MB-231 (breast cancer, estrogen receptor, progesterone receptor, and Her2 negative (triple negative)); A2058 (melanoma); U-87 MG (glioblastoma); NCI-H460 (NSCLC); A549 (NSCLC); HPAC (pancreatic cancer, primary); PC3 (prostate cancer, AR); BT474 (breast cancer, Her2 highly positive (Her2hi)); SKOV3 (ovarian cancer, Her2hi); 786-O (renal cancer); UO-31 (renal cancer, MDR); NCI-H740 (SCLC); DMS53 (SCLC); SK-BR3 (breast cancer, Her2hi); ZR-75 (breast cancer, estrogen receptor positive); OVCAR3 (ovarian cancer); HL-60 (APL); OVCAR8/Adr (ovarian cancer, MDR); CEM-Cl (ALL); Nomo-1 (AML); RPMI-8226 (MM)); Raji (lymphoma); SW-480 (colorectal cancer, metastatic); SW-620 (colorectal cancer); and H226 (lung cancer). (Not all compounds were assayed against all cell lines.)
(§3) Table 3 provides the data for the ATP luminescence proliferation assays, with an incubation period of 48, 72, or 96 h, as noted.

[2] = tested on: OVCAR3; test: ATP luminescence proliferation assay, OVCAR3
Method: as §1, §2, §3

[3] = tested on: NCI-H460; test: ATP luminescence proliferation assay, NCI-H460
Method: as §1, §2, §3

[4] = tested on: CEM-Cl; test: ATP luminescence proliferation assay, CEM-C1
Method: as §1, §2, §3

[5] = tested on: H740; test: 3H thymidine proliferation assay, H740
Method: as §1, §2
(§4) Table 2 provides the data for proliferation assays using the ^3H thymidine method, with an incubation period of 72 h.

[6] = tested on: HL-60; test: ATP luminescence proliferation assay, HL-60
Method: as §1, §2
FIGS. 12a and 12b show illustrative plots for ATP luminescence proliferation assays for a second set of compounds of this invention, against HL-60 and 786-O cells, respectively, with an incubation period of 72 h. FIGS. 12c and 12d show the plots for ^3H thymidine proliferation assays for the same set of compounds, again against HL-60 and 786-O cells, respectively, with a 72 h incubation period. In each instance, doxorubicin was used as a comparative compound.
as §3

[7] = tested on: RPMI-8226; test: ATP luminescence proliferation assay, RPMI-8226
Method: as §1, §2, §3

[8] = tested on: SW-480; test: ATP luminescence proliferation assay, SW-480
Method: as §1, §2, §3

[9] = tested on: A2058; test: ATP luminescence proliferation assay, A2058
Method: as §1, §2, §3

[10] = tested on: NCI-H460; test: 3H thymidine proliferation assay, NCI-H460
Method: as §1, §2, §4

[11] = tested on: HCT-15; test: 3H thymidine proliferation assay, HCT-15
Method: as §1, §2, §4

[12] = tested on: Hep3B; test: ATP luminescence proliferation assay, Hep3B
Method: as §1, §2, §3

[13] = tested on: SW-620; test: ATP luminescence proliferation assay, SW-620
Method: as §1, §2, §3

[14] = tested on: DMS53; test: 3H thymidine proliferation assay, DMS53
Method: as §1, §2, §4

[15] = tested on: OVCAR8; test: 3H thymidine proliferation assay, OVCAR8
Method: as §1, §2, §4

[16] = tested on: BT474; test: ATP luminescence proliferation assay, BT474
Method: as §1, §2, §3

[17] = tested on: PC3; test: 3H thymidine proliferation assay, PC3
Method: as §1, §2, §4

[18] = tested on: A549; test: 3H thymidine proliferation assay, A549
Method: as §1, §2, §4

[19] = Homo sapiens, OVCAR-3, 48 h, read-out: EC50 OVCAR3 (48 h), ATP luminescence, OVCAR3, 48 h incubation
[20] = Homo sapiens, NCI-H460, 72 h, read-out: EC50 NCI-H460 (72 h), ATP luminescence, NCI-H460, 72 h incubation
[21] = Homo sapiens, CEM/C1, 72 h, read-out: EC50 CEM-C1 (72 h), ATP luminescence, CEM-C1, 72 h incubation
[22] = Homo sapiens, read-out: EC50, H740, 3H thymidine method, 72 h incubation
[23] = Homo sapiens, RPMI-8226, 72 h, read-out: EC50 RPMI-8226 (72 h), ATP luminescence, RPMI-8226, 72 h incubation
[24] = Homo sapiens, SW480, 96 h, read-out: EC50 SW480 (96 h), ATP luminescence, SW480, 96 h incubation
[25] = Homo sapiens, A2058, 72 h, read-out: EC50 A2058 (72 h), ATP luminescence, A2058, 72 h incubation
[26] = Homo sapiens, NCI-H460, read-out: EC50, NCI-H460, 3H thymidine method, 72 h incubation
[27] = Homo sapiens, HCT-15, read-out: EC50, HCT-15, 3H thymidine method, 72 h incubation
[28] = Homo sapiens, 48 h, read-out: EC50 Hep3B (48 h), ATP luminescence, Hep3B, 48 h incubation
[29] = Homo sapiens, SW-620, 96 h, read-out: EC50 SW-620 (96 h), ATP luminescence, SW-620, 96 h incubation
[30] = Homo sapiens, DMS-53, read-out: EC50, DMS53, 3H thymidine method, 72 h incubation
[31] = Homo sapiens, OVCAR-8, read-out: EC50, OVCAR8, 3H thymidine method, 72 h incubation
[32] = Homo sapiens, BT-474, 48 h, read-out: EC50 BT474 (48 h), ATP luminescence, BT474, 48 h incubation
[33] = Homo sapiens, PC-3, read-out: EC50, PC3, 3H thymidine method, 72 h incubation
[34] = Homo sapiens, A549, read-out: EC50, A549, 3H thymidine method, 72 h incubation
[35] = ATP luminescence, Nomo-1, 72 h incubation, read-out: EC50 Nomo-1 (72 h)
[36] = ATP luminescence, OVCAR3, 48 h incubation, read-out: EC50 OVCAR3 (48 h)
[37] = ATP luminescence, NCI-H460, 72 h incubation, read-out: EC50 NCI-H460 (72 h)
[38] = ATP luminescence, CEM-C1, 72 h incubation, read-out: EC50 CEM-C1 (72 h)
[39] = 3H thymidine method, 72 h incubation, read-out: EC50, H740
[40] = ATP luminescence, HL-60, 72 h incubation, read-out: EC50 HL-60 (72 h)
[41] = ATP luminescence, RPMI-8226, 72 h incubation, read-out: EC50 RPMI-8226 (72 h)
[42] = ATP luminescence, SW480, 96 h incubation, read-out: EC50 SW480 (96 h)
[43] = ATP luminescence, A2058, 72 h incubation, read-out: EC50 A2058 (72 h)
[44] = 3H thymidine method, 72 h incubation, read-out: EC50, NCI-H460
[45] = 3H thymidine method, 72 h incubation, read-out: EC50, HCT-15
[46] = ATP luminescence, 48 h incubation, read-out: EC50 Hep3B (48 h)
[47] = ATP luminescence, SW-620, 96 h incubation, read-out: EC50 SW-620 (96 h)
[48] = 3H thymidine method, 72 h incubation, read-out: EC50, DMS53
[49] = 3H thymidine method, 72 h incubation, read-out: EC50, OVCAR8
[50] = ATP luminescence, BT474, 48 h incubation, read-out: EC50 BT474 (48 h)
[51] = 3H thymidine method, 72 h incubation, read-out: EC50, PC3
[52] = 3H thymidine method, 72 h incubation, read-out: EC50, A549

Row | Structure (SMILES) | EC50 [2, 19] [nM] | EC50 [3, 20] [nM] | EC50 [4, 21] [nM] | EC50 [5, 22] [nM] | EC50 [7, 23] [nM] | EC50 [8, 24] [nM] | EC50 [1, 35] [nM] | EC50 [2, 36] [nM] | EC50 [4, 38] [nM] | EC50 [5, 39] [nM] | EC50 [7, 41] [nM] | EC50 [8, 42] [nM] | EC50 [10, 44] [nM] | EC50 [11, 45] [nM] | EC50 [13, 47] [nM] | EC50 [14, 48] [nM] | EC50 [15, 49] [nM] | EC50 [16, 50] [nM] | EC50 [17, 51] [nM] | EC50 [18, 52] [nM] | further results
1 | CC[C@H](C)[C@H](NC(=O)[C@H]1CCCCN1C)C(=O)N(C)[C@H](C[C@@H](OC)c1nc(C(=O)N[C@@H](Cc2ccccc2)C(=O)N[C@@H](C)C(=O)OC)cs1)C(C)C [Compound 24] | 29 | 23 | 8.7 | 51 | 8.4 | 42 | – | – | – | – | – | – | – | – | – | – | – | – | – | – | EC50 ([1]; Homo sapiens, NOMO-1, 72 h, read-out: EC50 Nomo-1 (72 h), ATP luminescence, Nomo-1, 72 h incubation): 4 nM; EC50 ([6]; Homo sapiens, HL-60, 72 h, read-out: EC50 HL-60 (72 h), ATP luminescence, HL-60, 72 h incubation): 6.4 nM; EC50 [9, 25]: 14 nM; EC50 [10, 26]: > 100 nM; EC50 [11, 27]: 704 nM; EC50 [12, 28]: 10 nM; EC50 [13, 29]: 10 nM; EC50 [14, 30]: > 100 nM; EC50 [15, 31]: > 100 nM; EC50 [16, 32]: 4.6 nM; EC50 [17, 33]: 63 nM; EC50 [18, 34]: 38 nM
2 | CCC[C@H](NC(=O)[C@H](Cc1ccccc1)NC(=O)c1csc([C@@H](C[C@H](C(C)C)N(C)C(=O)[C@@H](NC(=O)[C@H]2CCCCN2C)[C@@H](C)CC)OC)n1)C(=O)OC [Compound 19] | – | – | – | – | – | – | 5.2 | 25 | 11 | 3.8 | 9.6 | 52 | > 100 | 1070 | 14 | > 100 | 69 | 8.8 | > 100 | > 100 | EC50 [3, 37]: 43 nM; EC50 [6, 40]: 7.7 nM; EC50 [9, 43]: 26 nM; EC50 [12, 46]: 18 nM
3 | CC[C@H](C)[C@H](NC(=O)[C@H]1CCCCN1C)C(=O)N(C)[C@H](C[C@@H](OC(C)=O)c1nc(C(=O)N[C@@H](Cc2ccc(N)cc2)CC(C)C(=O)O)cs1)C(C)C (stereo partly shown) [Compound 36] | > 300 | 16 | 40 | > 100 | 62 | 81 | – | – | – | – | – | – | – | – | – | – | – | – | – | – | EC50 ([1]; Homo sapiens, NOMO-1, 48 h, read-out: EC50 Nomo-1 (48 h), ATP luminescence, Nomo-1, 48 h incubation): 34 nM; EC50 ([6]; Homo sapiens, HL-60, 48 h, read-out: EC50 HL-60 (48 h), ATP luminescence, HL-60, 48 h incubation): 114 nM; EC50 [9, 25]: 43 nM; EC50 [10, 26]: 52 nM; EC50 [11, 27]: 64 nM; EC50 [12, 28]: 86 nM; EC50 [13, 29]: 45 nM; EC50 [14, 30]: > 100 nM; EC50 [15, 31]: > 100 nM; EC50 [16, 32]: ~120 nM; EC50 [17, 33]: 66 nM; EC50 [18, 34]: 44 nM
4 | CC[C@H](C)[C@H](NC(=O)[C@H]1CCCCN1C)C(=O)N(C)[C@H](C[C@@H](OC)c1nc(C(=O)N[C@@H](Cc2ccc(N)cc2)CC(C)C(=O)O)cs1)C(C)C (stereo partly shown) [Compound 51] | – | – | – | – | – | – | 7.4 | 5.5 | 4.8 | 37 | 5.2 | 13 | 7.2 | 101 | 6.4 | 24 | 20 | 11 | 5.6 | 7.8 | EC50 [3, 37]: 14 nM; EC50 [9, 43]: 5.5 nM; EC50 [12, 46]: 3.8 nM
5 | CC[C@H](C)[C@H](NC(=O)[C@H]1CCCCN1C)C(=O)N(C)[C@H](C[C@@H](OC)c1nc(C(=O)N[C@@H](Cc2ccccc2)C(=O)OC)cs1)C(C)C [Compound 16] | – | – | – | – | – | – | 3.1 | > 100 | 2.5 | > 100 | 15 | 48 | > 100 | 284 | 29 | > 100 | 1870 | 19 | > 100 | > 100 | EC50 ([3]; ATP luminescence, NCI-H460, 48 h incubation, read-out: EC50 NCI-H460 (48 h)): 69 nM; EC50 [6, 40]: 2.8 nM; EC50 ([9]; ATP luminescence, A2058, 48 h incubation, read-out: EC50 A2058 (48 h)): 30 nM
